Measured values as given in article doi:10.1101/2022.06.29.498063v1, “Molecular basis for the pheromone-mediated feeding preference of early-instar Mythimna separata larvae” (biorxiv, 2022).

Target: T1, MsGOBP2 (Mythimna separata, UniProt A0A5H2NB15)
T1 construct: recombinant, pColdII vector, E. coli TransB, Ni-NTA purified, expression tag removed with enterokinase
T1 sequence (A0A5H2NB15 22-162): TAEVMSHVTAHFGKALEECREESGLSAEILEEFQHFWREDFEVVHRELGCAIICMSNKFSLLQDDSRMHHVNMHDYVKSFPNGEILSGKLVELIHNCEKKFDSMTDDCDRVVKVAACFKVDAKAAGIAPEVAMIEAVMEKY
Assay: direct fluorescence titration with the probe
Format: binding
Conditions: 2 μM protein; protein dialyzed in 10 mM PBS pH 7.4; excitation 337 nm

## c1ccc(Nc2cccc3ccccc23)cc1 [1-NPN]
  K1-NPN: yielding the dissociation constants between the two proteins and 1-NPN (K1-NPN)
